The target in data set [1] is T1, human metastin receptor hOT7T175 (Homo sapiens, UniProt Q969F8, L364H).
T1 construct: encoding the entire length of human metastin receptor hOT7T175; expressed in transfected cells; host or cells: CHO/dhFr- cells (ATCC #CRL-9096) stably transfected with pAKKO-hOT7T175; clone h175-16 was used as whole cells for FLIPR
Kind of data set: binding inhibiting activity: 125I-metastin (40-54) binding to cell membrane fraction of h175 KB34 cells. The settings on record: room temperature 60 minutes, read-out: binding inhibiting activity, represented by the IC50 value. The procedure, abridged: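 Membranes came from CHO/dhfr− cells stably expressing human hOT7T175 (clone h175 KB34) and were diluted 250-fold for use. Binding of 125I-metastin (40-54) was run in 20 mM Tris, 2.5 mM magnesium acetate and 2 mM EGTA, pH 7.4, with protease inhibitors, either without BSA or with 1 mg/ml BSA.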

These results are taken from patent publication US20090156646A1, “PYRIDYLPHENOL COMPOUND AND USE THEREOF” (TAKEDA PHARMACEUTICAL COMPANY LIMITED, priority 2005, published 2009).

As a reminder, the melting point is the temperature, or range, at which the solid turns liquid. As a reminder, the pIC50 is the negative decadic logarithm of the IC50, by convention in mol/L.

pIC50: −log10 of the molar value.

T1 sequence (Q969F8 whole entry L364H): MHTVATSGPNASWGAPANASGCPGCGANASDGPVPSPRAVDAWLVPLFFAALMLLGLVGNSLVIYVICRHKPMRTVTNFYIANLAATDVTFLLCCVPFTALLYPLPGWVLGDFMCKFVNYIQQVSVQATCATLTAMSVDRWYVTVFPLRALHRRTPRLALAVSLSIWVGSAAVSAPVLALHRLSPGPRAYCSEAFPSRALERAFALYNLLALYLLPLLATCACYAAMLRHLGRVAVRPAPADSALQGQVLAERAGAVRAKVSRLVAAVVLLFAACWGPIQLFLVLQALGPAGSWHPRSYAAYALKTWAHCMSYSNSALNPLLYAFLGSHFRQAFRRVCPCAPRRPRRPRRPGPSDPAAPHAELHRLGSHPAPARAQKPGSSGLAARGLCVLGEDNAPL

`Cl.N#Cc1c(-c2cccc(C(=O)NC3CCNCC3)c2)cc(-c2ccccc2O)nc1NC(=O)c1cccs1` [Example 7, N-(3-cyano-6-(2-hydroxyphenyl)-4-{3-[(piperidin-4-ylamino)carbonyl]phenyl}pyridin-2-yl)thiophene-2-carboxamide hydrochloride] gave a melting point of 254 to 256 °C. The pIC50 in data set [1] is at least 5.00.

`Cl.N#Cc1c(-c2cccc(CNC(=O)CN)c2)cc(-c2ccccc2O)nc1NC(=O)c1cccs1` [Example 43, N-[3-cyano-4-{3-[(glycylamino)methyl]phenyl}-6-(2-hydroxyphenyl)pyridin-2-yl]thiophene-2-carboxamide hydrochloride] showed a melting point of 181 to 186 °C. Besides, the pIC50 in data set [1] was at least 5.00.

In the case of `Cl.N#Cc1c(-c2cccc(CNC(=O)CCN)c2)cc(-c2ccccc2O)nc1NC(=O)c1cccs1` [Example 44, N-[4-{3-[(β-alanylamino)methyl]phenyl}-3-cyano-6-(2-hydroxyphenyl)pyridin-2-yl]thiophene-2-carboxamide hydrochloride], the melting point is 173 to 180 °C. Further, the pIC50 in data set [1] is at least 5.00.

Consider `N#Cc1c(-c2cccc(CNC(=N)N)c2)cc(-c2ccccc2O)nc1NC(=O)c1cccs1.O=C(O)C(F)(F)F` [Example 45, N-{4-[3-({[amino(imino)methyl]amino}methyl)phenyl]-3-cyano-6-(2-hydroxyphenyl)pyridin-2-yl}thiophene-2-carboxamide trifluoroacetate], for which the melting point is 144 to 151 °C. Besides, the pIC50 in data set [1] was at least 5.00.

Molecule `Cc1ccc(-c2cc(-c3cccc(NC(=O)CCN)c3)c(C#N)c(NC(=O)c3cccs3)n2)c(O)c1.Cl` [Example 57, N-{4-[3-(β-alanylamino)phenyl]-3-cyano-6-(2-hydroxy-4-methylphenyl)pyridin-2-yl}thiophene-2-carboxamide hydrochloride] returned a melting point of 204 to 210 °C. The pIC50 in data set [1] was at least 5.00.

`Cl.N#Cc1c(-c2cccc(NC(=O)CCN)c2)cc(-c2ccc(Br)cc2O)nc1NC(=O)c1cccs1` [Example 61, N-{4-[3-(β-alanylamino)phenyl]-6-(4-bromo-2-hydroxyphenyl)-3-cyanopyridin-2-yl}thiophene-2-carboxamide hydrochloride] came in with a melting point of 203 to 211 °C. For the same molecule, in data set [1], the pIC50 was at least 5.00.

In turn, `Cl.N#Cc1c(-c2cccc(NC(=O)CCN)c2)cc(-c2ccc(Cl)cc2O)nc1NC(=O)c1ccco1` [Example 63, N-{4-[3-(β-alanylamino)phenyl]-6-(4-chloro-2-hydroxyphenyl)-3-cyanopyridin-2-yl}-2-furamide hydrochloride] displayed a melting point of 206 to 212 °C. Besides, the pIC50 in data set [1] is at least 5.00.

The molecule `Cl.N#Cc1c(-c2cccc(NC(=O)CCN)c2)cc(-c2ccc(C(F)(F)F)cc2O)nc1NC(=O)c1cccs1` [Example 64, N-{4-[3-(β-alanylamino)phenyl]-3-cyano-6-[2-hydroxy-4-(trifluoromethyl)phenyl]pyridin-2-yl}thiophene-2-carboxamide hydrochloride] showed a melting point of 209 to 216 °C. Also, the pIC50 in data set [1] is at least 5.00.

Consider `Cl.N#Cc1c(-c2cccc(NC(=O)C3(N)CCC3)c2)cc(-c2ccc(Cl)cc2O)nc1NC(=O)c1ccco1` [Example 65, N-[4-(3-{[(1-aminocyclobutyl)carbonyl]amino}phenyl)-6-(4-chloro-2-hydroxyphenyl)-3-cyanopyridin-2-yl]-2-furamide hydrochloride], for which the melting point was 195 to 200 °C. Further, in data set [1], the pIC50 was at least 5.00.

In turn, `Cl.N#Cc1c(-c2cccc(C(=O)NCCCn3ccnc3)c2)cc(-c2ccc(F)cc2O)nc1NC(=O)c1ccco1` [Example 67, N-{3-cyano-6-(4-fluoro-2-hydroxyphenyl)-4-[3-({[3-(1H-imidazole-1-yl)propyl]amino}carbonyl)phenyl]pyridin-2-yl}-2-furamide hydrochloride] displayed a melting point of 173 to 174 °C. In addition, the pIC50 in data set [1] is at least 5.00.

In the case of `Cl.N#Cc1c(-c2cccc(NC(=O)CCN)c2)cc(-c2ccc(F)cc2O)nc1NC(=O)c1ccco1` [Example 68, N-{4-[3-(β-alanylamino)phenyl]-3-cyano-6-(4-fluoro-2-hydroxyphenyl)pyridin-2-yl}-2-furamide hydrochloride], the melting point was in the range of 269 to 270 °C. In data set [1], the pIC50 is at least 5.00.

In turn, `Cl.N#Cc1c(-c2cccc(NC(=O)C3(N)CC3)c2)cc(-c2ccc(Cl)cc2O)nc1NC(=O)c1ccco1` [Example 69, N-[4-(3-{[(1-aminocyclopropyl)carbonyl]amino}phenyl)-6-(4-chloro-2-hydroxyphenyl)-3-cyanopyridin-2-yl]-2-furamide hydrochloride] yielded a melting point of 190 to 196 °C. Besides, the pIC50 in data set [1] is at least 5.00.

For `COc1ccccc1C(=O)Nc1nc(-c2ccc(Cl)cc2O)cc(-c2cccc(C(=O)NCCCn3ccnc3)c2)c1C#N.Cl` [Example 70, N-{6-(4-chloro-2-hydroxyphenyl)-3-cyano-4-[3-({[3-(1H-imidazole-1-yl)propyl]amino}carbonyl)phenyl]pyridin-2-yl}-2-methoxybenzamide hydrochloride], the melting point lay within 234 to 237 °C. In data set [1], the pIC50 is at least 5.00.

`COc1ccccc1C(=O)Nc1nc(-c2ccc(Cl)cc2O)cc(-c2cccc(C(=O)NCC3CCCCN3)c2)c1C#N.Cl` (stereo not drawn) [Example 71, N-[6-(4-chloro-2-hydroxyphenyl)-3-cyano-4-(3-{[(piperidine-2-ylmethyl)amino]carbonyl}phenyl)pyridin-2-yl]-2-methoxybenzamide hydrochloride]: the melting point lay within 210 to 217 °C. The pIC50 in data set [1] is at least 5.00.

On to `Cl.N#Cc1c(-c2cccc(C(=O)NC3CCNC3)c2)cc(-c2ccc(F)cc2O)nc1NC(=O)c1ccco1` (stereo not drawn) [Example 76, N-(3-cyano-6-(4-fluoro-2-hydroxyphenyl)-4-{3-[(pyrrolidin-3-ylamino)carbonyl]phenyl}pyridin-2-yl)-2-furamide hydrochloride], for which the melting point fell in the range of 225 to 226 °C. For the same molecule, in data set [1], the pIC50 is at least 5.00.

The molecule `CC(C)(CN)CNC(=O)c1cccc(-c2cc(-c3ccc(F)cc3O)nc(NC(=O)c3ccco3)c2C#N)c1.Cl` [Example 77, N-[4-(3-{[(3-amino-2,2-dimethylpropyl)amino]carbonyl}phenyl)-3-cyano-6-(4-fluoro-2-hydroxyphenyl)pyridin-2-yl]-2-furamide hydrochloride] displayed a melting point of 256 to 257 °C. Further, the pIC50 in data set [1] is at least 5.00.

Regarding `Cl.N#Cc1c(-c2cccc(C(=O)NCCCn3ccnc3)c2)cc(-c2ccc(F)cc2O)nc1NC(=O)c1cccs1` [Example 78, N-{3-cyano-6-(4-fluoro-2-hydroxyphenyl)-4-[3-({[3-(1H-imidazole-1-yl)propyl]amino}carbonyl)phenyl]pyridin-2-yl}thiophene-2-carboxamide hydrochloride], the melting point was 195 to 196 °C. Further, the pIC50 in data set [1] was at least 5.00.

`Cl.N#Cc1c(-c2cccc(C(=O)NC3CCNC3)c2)cc(-c2ccc(F)cc2O)nc1NC(=O)c1cccs1` (stereo not drawn) [Example 79, N-(3-cyano-6-(4-fluoro-2-hydroxyphenyl)-4-{3-[(pyrrolidine-3-ylamino)carbonyl]phenyl}pyridin-2-yl)thiophene-2-carboxamide hydrochloride]: the melting point was 240 to 241 °C. In addition, the pIC50 in data set [1] was at least 5.00.
